Where a name gives a salt, the structure may show the parent alone. Read-outs that look alike come from different tables or passages of the source.
What was measured:
[1] = physchem; details: aqueous with cosolvent or surfactant or cyclodextrin
[2] = clinical; details: male, human, in vivo; for Tmax: Tmax (median)
[3] = human, in vivo; for Tmax (median): male
[4] = Safety and tolerability in phase 1 trial of sublingual statin sprays; type: in vivo, human; details: all mild; simvastatin AE after 40 mg; fluvastatin with both doses
Method: The secondary objectives of this study were to: • establish the safety, tolerability, local tolerance and taste acceptance of the study medications
Safety was evaluated by adverse event (AE) monitoring, evaluation of any medically significant changes, based on physical examination findings, vital signs, and electrocardiograms (ECGs) assessments, clinical laboratory testing, local tolerance and taste acceptance.
Safety data was summarised by descriptive methods; continuous variables by summary statistics and categorical data by absolute and relative frequencies.

[5] = Phase 1 pharmacokinetic study of sublingual statin sprays in healthy male subjects; details: for AUC(0-inf) / AUC(0-t) / Cmax / Tmax: male, human, plasma; for Tmax: Tmax (median); for Tmax / Tmax (median): sublingual spray, healthy male subjects, simvastatin acid measured after simvastatin spray
[6] = Solubility of the statin in formulation carriers; details: aqueous-based formulation, water
[7] = Chemical stability / compatibility of the statin in formulations; type: physicochemical

In the case of `CC(C)n1c(/C=C/C(O)CC(O)CC(=O)O)c(-c2ccc(F)cc2)c2ccccc21` (centres unmarked) [Fluvastatin (sodium salt), fluvastatin sodium], the solubility [1] is reported as ≥ 25 mg/mL.

`CC(C)n1c(/C=C/C(O)CC(O)CC(=O)O)c(-c2ccc(F)cc2)c2ccccc21` (centres unmarked) [Fluvastatin, fluvastatin] showed an AUC(0-inf) ([2]; 10 mg) of 37.2 ng·h/mL, an AUC(0-t) ([2]; 10 mg) of 36.3 ng·h/mL and a Cmax ([2]; 10 mg) of 34.2 ng/mL. The half-life ([2]; 10 mg) was 70.8 min, the Tmax ([2]; 10 mg) was ~0.5 h and the AUC(0-inf) ([2]; 25 mg) was 91.7 ng·h/mL. For the same compound, the AUC(0-t) ([2]; 25 mg) was 89.9 ng·h/mL, the Cmax ([2]; 25 mg) was 88 ng/mL and the half-life ([2]; 25 mg) was 84 min. For the same compound, the Tmax ([2]; 25 mg) was ~0.5 h, the “CL/F (mean)” value ([3]; 10 mg) was 376.22 L/h and the “CL/F (mean)” value ([3]; 25 mg) was 363.21 L/h. For the same compound, the “Tmax (median)” value ([3]; 10 mg) was 33.6 min, the “Tmax (median)” value ([3]; 25 mg) was 34.2 min and the “Treatment-emergent AEs reported” value [4] was 5 related and 2 unrelated.

`CC[C@H](C)C(=O)O[C@H]1C[C@H](O)C=C2C=C[C@H](C)[C@H](CC[C@@H](O)C[C@@H](O)CC(=O)O)[C@H]21` [Pravastatin, pravastatin] gave a half-life ([2]; 20 mg) of 94.8 min, a half-life ([2]; 40 mg) of 79.2 min and an AUC(0-inf) ([5]; 20 mg) of 31.2 ng·h/mL. The AUC(0-t) ([5]; 20 mg) was 30 ng·h/mL, the Cmax ([5]; 20 mg) was 12.3 ng/mL and the Tmax ([5]; 20 mg, 20 mg) was 1.3 h. The AUC(0-inf) ([5]; 40 mg) was 80.6 ng·h/mL, the AUC(0-t) ([5]; 40 mg) was 78.8 ng·h/mL and the Cmax ([5]; 40 mg) was 44.5 ng/mL. For the same compound, the Tmax ([5]; 40 mg, 40 mg) was 1.3 h, the “Tmax (median)” value ([5]; 20 mg) was 1.33 h and the “Tmax (median)” value ([5]; 40 mg) was 1.29 h. The “CL/F (mean)” value ([3]; 20 mg) was 685.48 L/h, the “CL/F (mean)” value ([3]; 40 mg) was 820.32 L/h and the “Treatment-emergent AEs reported” value [4] was “none”.

Compound `CCC(C)(C)C(=O)O[C@H]1C[C@@H](C)C=C2C=C[C@H](C)[C@H](CC[C@@H](O)C[C@@H](O)CC(=O)O)[C@H]21` [Simvastatin Acid, simvastatin acid] has an AUC(0-inf) ([2]; 20 mg) of 37.7 ng·h/mL, an AUC(0-t) ([2]; 20 mg) of 21.3 ng·h/mL and a Cmax ([2]; 20 mg) of 6.1 ng/mL. For the same compound, the Vd/F ([2]; 20 mg) was 3960 L, the half-life ([2]; 20 mg) was 344 min and the Tmax ([2]; 20 mg) was 2.19 h. The AUC(0-inf) ([2]; 40 mg) was 47.6 ng·h/mL, the AUC(0-t) ([2]; 40 mg) was 32.5 ng·h/mL and the Cmax ([2]; 40 mg) was 9.88 ng/mL. For the same compound, the Vd/F ([2]; 40 mg) was 4760 L, the half-life ([2]; 40 mg) was 219 min and the Tmax ([2]; 40 mg) was 3.88 h. For the same compound, the “CL/F (mean)” value ([3]; 20 mg) was 609.03 L/h and the “CL/F (mean)” value ([3]; 40 mg) was 921.93 L/h.

Compound `CCC(C)(C)C(=O)O[C@H]1C[C@@H](C)C=C2C=C[C@H](C)[C@H](CC[C@@H]3C[C@@H](O)CC(=O)O3)[C@H]21` [Simvastatin, simvastatin] has a Vd/F ([2]; 20 mg) of 1980 L, a half-life ([2]; 20 mg) of 108 min and a Vd/F ([2]; 40 mg) of 2070 L. For the same compound, the half-life ([2]; 40 mg) was 114 min, the Tmax ([5]; 20 mg, 20 mg) was 1.88 h and the Tmax ([5]; 40 mg, 40 mg) was 1.88 h. For the same compound, the “CL/F (mean)” value ([3]; 20 mg) was 744.33 L/h, the “CL/F (mean)” value ([3]; 40 mg) was 764.67 L/h and the “Treatment-emergent AEs reported” value [4] was “one”.

For `CC[C@H](C)C(=O)O[C@H]1C[C@H](O)C=C2C=C[C@H](C)[C@H](CC[C@@H](O)C[C@@H](O)CC(=O)O)[C@H]21` [pravastatin sodium], the solubility [6] was ≥ 150 mg/mL and the Reaction with ethanol [7] was “react with ethanol”.
